Reference: ChEMBL document CHEMBL1201861, “Genomics of Drug Sensitity in Cancer screening data, Wellcome Trust Sanger Institute”

test system: COLO-741; assay: cells; format: functional, cell-based; conditions: Homo sapiens
Description: SANGER: Inhibition of human COLO-741 cell growth in a cell viability assay.

`NC1(c2ccc(-c3nc4ccn5c(=O)[nH]nc5c4cc3-c3ccccc3)cc2)CCC1` [MK-2206] and `O=C1NC(=O)c2c1c(-c1ccccc1Cl)cc1[nH]c3ccc(O)cc3c21` cannot be ordered by IC50: greater than 4000 nM for the first, greater than 2000 nM for the second.

test system: COR-L23; assay: cells; format: functional, cell-based; conditions: Homo sapiens;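 also: cell viability assay measuring how strongly compounds suppress growth of COR-L23 cells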
Description: SANGER: Inhibition of human COR-L23 cell growth in a cell viability assay.

Compared with `NC1(c2ccc(-c3nc4ccn5c(=O)[nH]nc5c4cc3-c3ccccc3)cc2)CCC1` [MK-2206], `O=C1NC(=O)c2c1c(-c1ccccc1Cl)cc1[nH]c3ccc(O)cc3c21` is lower in IC50: greater than 4000 nM for the first, 752 nM for the second. The second is the more potent here.

test system: D-392MG; assay: cells; format: functional, cell-based; conditions: Homo sapiens

`NC1(c2ccc(-c3nc4ccn5c(=O)[nH]nc5c4cc3-c3ccccc3)cc2)CCC1` [MK-2206] and `O=C1NC(=O)c2c1c(-c1ccccc1Cl)cc1[nH]c3ccc(O)cc3c21` cannot be ordered by IC50: greater than 4000 nM for the first, greater than 2000 nM for the second.

test system: Detroit 562; assay: cells; format: functional, cell-based; conditions: Homo sapiens;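 also: growth inhibition of human Detroit 562 cells, read out by a cell viability assay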
Description: SANGER: Inhibition of human Detroit562 cell growth in a cell viability assay.

`NC1(c2ccc(-c3nc4ccn5c(=O)[nH]nc5c4cc3-c3ccccc3)cc2)CCC1` [MK-2206] and `O=C1NC(=O)c2c1c(-c1ccccc1Cl)cc1[nH]c3ccc(O)cc3c21` cannot be ordered by IC50: greater than 4000 nM for the first, greater than 2000 nM for the second.

test system: ECC10; assay: cells; format: functional, cell-based; conditions: Homo sapiens;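 also: growth inhibition of ECC10 cells, read out by a cell viability assay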
Description: SANGER: Inhibition of human ECC10 cell growth in a cell viability assay.

Compared with `NC1(c2ccc(-c3nc4ccn5c(=O)[nH]nc5c4cc3-c3ccccc3)cc2)CCC1` [MK-2206], `O=C1NC(=O)c2c1c(-c1ccccc1Cl)cc1[nH]c3ccc(O)cc3c21` is 2.8-fold lower in IC50: 3940 nM for the first, 1410 nM for the second. The second is the more potent here.

test system: EFO-21; assay: cells; format: functional, cell-based; conditions: Homo sapiens;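 also: growth inhibition of EFO-21 cells measured with a viability assay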
Description: SANGER: Inhibition of human EFO-21 cell growth in a cell viability assay.

`NC1(c2ccc(-c3nc4ccn5c(=O)[nH]nc5c4cc3-c3ccccc3)cc2)CCC1` [MK-2206] and `O=C1NC(=O)c2c1c(-c1ccccc1Cl)cc1[nH]c3ccc(O)cc3c21` cannot be ordered by IC50: greater than 4000 nM for the first, greater than 2000 nM for the second.

test system: HMV-2 cell line; assay: cells; format: functional, cell-based; conditions: Homo sapiens;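 also: growth inhibition of HMV-II cells, read out with a cell viability assay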
Description: SANGER: Inhibition of human HMV-II cell growth in a cell viability assay.

For `O=C1NC(=O)c2c1c(-c1ccccc1Cl)cc1[nH]c3ccc(O)cc3c21`, the IC50 was greater than 2000 nM.

test system: LCLC-97TM1; assay: cells; format: functional, cell-based; conditions: Homo sapiens;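 also: cell viability assay measuring growth inhibition of human LCLC-97TM1 cells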
Description: SANGER: Inhibition of human LCLC-97TM1 cell growth in a cell viability assay.

`NC1(c2ccc(-c3nc4ccn5c(=O)[nH]nc5c4cc3-c3ccccc3)cc2)CCC1` [MK-2206] and `O=C1NC(=O)c2c1c(-c1ccccc1Cl)cc1[nH]c3ccc(O)cc3c21` cannot be ordered by IC50: greater than 4000 nM for the first, greater than 2000 nM for the second.

test system: LU-135; assay: cells; format: functional, cell-based; conditions: Homo sapiens
Description: SANGER: Inhibition of human LU-135 cell growth in a cell viability assay.

`NC1(c2ccc(-c3nc4ccn5c(=O)[nH]nc5c4cc3-c3ccccc3)cc2)CCC1` [MK-2206] and `O=C1NC(=O)c2c1c(-c1ccccc1Cl)cc1[nH]c3ccc(O)cc3c21` cannot be ordered by IC50: greater than 4000 nM for the first, greater than 2000 nM for the second.

test system: LoVo; assay: cells; format: functional, cell-based; conditions: Homo sapiens;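 also: growth inhibition of human LoVo cells, read out with a cell viability assay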
Description: SANGER: Inhibition of human LoVo cell growth in a cell viability assay.

Compared with `NC1(c2ccc(-c3nc4ccn5c(=O)[nH]nc5c4cc3-c3ccccc3)cc2)CCC1` [MK-2206], `O=C1NC(=O)c2c1c(-c1ccccc1Cl)cc1[nH]c3ccc(O)cc3c21` is higher in IC50: 1330 nM for the first, greater than 2000 nM for the second. The first is the more potent here.

test system: MCF7; assay: cells; format: functional, cell-based; conditions: Homo sapiens;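 also: growth inhibition of human MCF7 cells, read out with a cell viability assay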
Description: SANGER: Inhibition of human MCF7 cell growth in a cell viability assay.

`NC1(c2ccc(-c3nc4ccn5c(=O)[nH]nc5c4cc3-c3ccccc3)cc2)CCC1` [MK-2206] and `O=C1NC(=O)c2c1c(-c1ccccc1Cl)cc1[nH]c3ccc(O)cc3c21` cannot be ordered by IC50: 2860 nM for the first, greater than 2000 nM for the second.

test system: NB12; assay: cells; format: functional, cell-based; conditions: Homo sapiens;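 also: growth inhibition of human NB12 cells, read out by a cell viability assay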
Description: SANGER: Inhibition of human NB12 cell growth in a cell viability assay.

`NC1(c2ccc(-c3nc4ccn5c(=O)[nH]nc5c4cc3-c3ccccc3)cc2)CCC1` [MK-2206] and `O=C1NC(=O)c2c1c(-c1ccccc1Cl)cc1[nH]c3ccc(O)cc3c21` cannot be ordered by IC50: greater than 4000 nM for the first, greater than 2000 nM for the second.

test system: NBsusSR; assay: cells; format: functional, cell-based; conditions: Homo sapiens;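 also: growth inhibition of the human cell line, read out with a cell viability assay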
Description: SANGER: Inhibition of human NBsusSR cell growth in a cell viability assay.

First: NC1(c2ccc(-c3nc4ccn5c(=O)[nH]nc5c4cc3-c3ccccc3)cc2)CCC1 [MK-2206]
Second: O=C1NC(=O)c2c1c(-c1ccccc1Cl)cc1[nH]c3ccc(O)cc3c21
The IC50 of the first is higher: greater than 4000 nM for the first, 952 nM for the second. The second is the more potent here.

test system: NCI-H1666; assay: cells; format: functional, cell-based; conditions: Homo sapiens;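 also: growth inhibition of the cell line, read out with a cell viability assay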
Description: SANGER: Inhibition of human NCI-H1666 cell growth in a cell viability assay.

With `O=C1NC(=O)c2c1c(-c1ccccc1Cl)cc1[nH]c3ccc(O)cc3c21` the IC50 was greater than 2000 nM.

test system: NCI-H1693; assay: cells; format: functional, cell-based; conditions: Homo sapiens;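 also: growth inhibition of the human cell line, read out with a cell viability assay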
Description: SANGER: Inhibition of human NCI-H1693 cell growth in a cell viability assay.

`NC1(c2ccc(-c3nc4ccn5c(=O)[nH]nc5c4cc3-c3ccccc3)cc2)CCC1` [MK-2206] and `O=C1NC(=O)c2c1c(-c1ccccc1Cl)cc1[nH]c3ccc(O)cc3c21` cannot be ordered by IC50: greater than 4000 nM for the first, greater than 2000 nM for the second.

test system: NCI-H1792; assay: cells; format: functional, cell-based; conditions: Homo sapiens;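 also: growth inhibition of human NCI-H1792 cells, read out as cell viability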
Description: SANGER: Inhibition of human NCI-H1792 cell growth in a cell viability assay.

`NC1(c2ccc(-c3nc4ccn5c(=O)[nH]nc5c4cc3-c3ccccc3)cc2)CCC1` [MK-2206] and `O=C1NC(=O)c2c1c(-c1ccccc1Cl)cc1[nH]c3ccc(O)cc3c21` cannot be ordered by IC50: greater than 4000 nM for the first, greater than 2000 nM for the second.

test system: NCI-H2291; assay: cells; format: functional, cell-based; conditions: Homo sapiens
Description: SANGER: Inhibition of human NCI-H2291 cell growth in a cell viability assay.

`NC1(c2ccc(-c3nc4ccn5c(=O)[nH]nc5c4cc3-c3ccccc3)cc2)CCC1` [MK-2206] and `O=C1NC(=O)c2c1c(-c1ccccc1Cl)cc1[nH]c3ccc(O)cc3c21` cannot be ordered by IC50: greater than 4000 nM for the first, greater than 2000 nM for the second.

test system: NCI-H358; assay: cells; format: functional, cell-based; conditions: Homo sapiens;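 also: growth inhibition of NCI-H358 human cells, read out with a cell viability assay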
Description: SANGER: Inhibition of human NCI-H358 cell growth in a cell viability assay.

Molecule `O=C1NC(=O)c2c1c(-c1ccccc1Cl)cc1[nH]c3ccc(O)cc3c21` has an IC50 greater than 2000 nM.

test system: NCI-H727; assay: cells; format: functional, cell-based; conditions: Homo sapiens;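 also: growth inhibition of human NCI-H727 cells, read out with a cell viability assay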
Description: SANGER: Inhibition of human NCI-H727 cell growth in a cell viability assay.

`NC1(c2ccc(-c3nc4ccn5c(=O)[nH]nc5c4cc3-c3ccccc3)cc2)CCC1` [MK-2206] and `O=C1NC(=O)c2c1c(-c1ccccc1Cl)cc1[nH]c3ccc(O)cc3c21` cannot be ordered by IC50: greater than 4000 nM for the first, greater than 2000 nM for the second.

test system: OAW-42; assay: cells; format: functional, cell-based; conditions: Homo sapiens;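 also: growth inhibition of OAW-42 cells, read out with a cell viability assay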
Description: SANGER: Inhibition of human OAW-42 cell growth in a cell viability assay.

`NC1(c2ccc(-c3nc4ccn5c(=O)[nH]nc5c4cc3-c3ccccc3)cc2)CCC1` [MK-2206] was tested, and the IC50 was 887 nM.

test system: OVCAR-3; assay: cells; format: functional, cell-based; conditions: Homo sapiens;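 also: growth inhibition of human OVCAR-3 cells, determined by a cell viability assay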
Description: SANGER: Inhibition of human OVCAR-3 cell growth in a cell viability assay.

`NC1(c2ccc(-c3nc4ccn5c(=O)[nH]nc5c4cc3-c3ccccc3)cc2)CCC1` [MK-2206] and `O=C1NC(=O)c2c1c(-c1ccccc1Cl)cc1[nH]c3ccc(O)cc3c21` cannot be ordered by IC50: 3410 nM for the first, greater than 2000 nM for the second.

test system: PC-14; assay: cells; format: functional, cell-based; conditions: Homo sapiens;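 also: cell viability assay measuring inhibition of PC-14 cell growth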
Description: SANGER: Inhibition of human PC-14 cell growth in a cell viability assay.

`NC1(c2ccc(-c3nc4ccn5c(=O)[nH]nc5c4cc3-c3ccccc3)cc2)CCC1` [MK-2206] and `O=C1NC(=O)c2c1c(-c1ccccc1Cl)cc1[nH]c3ccc(O)cc3c21` cannot be ordered by IC50: greater than 4000 nM for the first, greater than 2000 nM for the second.

test system: RERF-LC-MS; assay: cells; format: functional, cell-based; conditions: Homo sapiens;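 also: growth inhibition of human RERF-LC-MS cells, read out by a cell viability assay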
Description: SANGER: Inhibition of human RERF-LC-MS cell growth in a cell viability assay.

`NC1(c2ccc(-c3nc4ccn5c(=O)[nH]nc5c4cc3-c3ccccc3)cc2)CCC1` [MK-2206] and `O=C1NC(=O)c2c1c(-c1ccccc1Cl)cc1[nH]c3ccc(O)cc3c21` cannot be ordered by IC50: greater than 4000 nM for the first, greater than 2000 nM for the second.

test system: RH-18; assay: cells; format: functional, cell-based; conditions: Homo sapiens, Rh18;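 also: growth inhibition of human RH-18 cells, read out with a cell viability assay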
Description: SANGER: Inhibition of human RH-18 cell growth in a cell viability assay.

`NC1(c2ccc(-c3nc4ccn5c(=O)[nH]nc5c4cc3-c3ccccc3)cc2)CCC1` [MK-2206] and `O=C1NC(=O)c2c1c(-c1ccccc1Cl)cc1[nH]c3ccc(O)cc3c21` cannot be ordered by IC50: greater than 4000 nM for the first, greater than 2000 nM for the second.

test system: SCC-9; assay: cells; format: functional, cell-based; conditions: Homo sapiens;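 also: Read-out is a cell viability assay, with values giving inhibition of cell growth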
Description: SANGER: Inhibition of human SCC-9 cell growth in a cell viability assay.

`NC1(c2ccc(-c3nc4ccn5c(=O)[nH]nc5c4cc3-c3ccccc3)cc2)CCC1` [MK-2206] and `O=C1NC(=O)c2c1c(-c1ccccc1Cl)cc1[nH]c3ccc(O)cc3c21` cannot be ordered by IC50: greater than 4000 nM for the first, greater than 2000 nM for the second.

test system: SK-MEL3; assay: cells; format: functional, cell-based, SK-MEL-3; conditions: Homo sapiens;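 also: growth inhibition of human SK-MEL-3 cells, read out with a cell viability assay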
Description: SANGER: Inhibition of human SK-MEL-3 cell growth in a cell viability assay.

First: NC1(c2ccc(-c3nc4ccn5c(=O)[nH]nc5c4cc3-c3ccccc3)cc2)CCC1 [MK-2206]
Second: O=C1NC(=O)c2c1c(-c1ccccc1Cl)cc1[nH]c3ccc(O)cc3c21
The IC50 of the first is higher: greater than 4000 nM for the first, 1310 nM for the second. The second is the more potent here.

test system: SNU-387; assay: cells; format: functional, cell-based; conditions: Homo sapiens
Description: SANGER: Inhibition of human SNU-387 cell growth in a cell viability assay.

Going from `NC1(c2ccc(-c3nc4ccn5c(=O)[nH]nc5c4cc3-c3ccccc3)cc2)CCC1` [MK-2206] to `O=C1NC(=O)c2c1c(-c1ccccc1Cl)cc1[nH]c3ccc(O)cc3c21`, the IC50 rises from 1880 nM to greater than 2000 nM. The first is the more potent here.

test system: SW-620; assay: cells; format: functional, cell-based; conditions: Homo sapiens;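 also: growth inhibition of human SW-620 cells, measured by a cell viability assay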
Description: SANGER: Inhibition of human SW620 cell growth in a cell viability assay.

`NC1(c2ccc(-c3nc4ccn5c(=O)[nH]nc5c4cc3-c3ccccc3)cc2)CCC1` [MK-2206] and `O=C1NC(=O)c2c1c(-c1ccccc1Cl)cc1[nH]c3ccc(O)cc3c21` cannot be ordered by IC50: greater than 4000 nM for the first, greater than 2000 nM for the second.

test system: SW837; assay: cells; format: functional, cell-based; conditions: Homo sapiens;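 also: growth inhibition of SW837 cells, determined with a cell viability assay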
Description: SANGER: Inhibition of human SW837 cell growth in a cell viability assay.

Molecule `O=C1NC(=O)c2c1c(-c1ccccc1Cl)cc1[nH]c3ccc(O)cc3c21` has an IC50 greater than 2000 nM.

test system: TCC-SUP; assay: cells; format: functional, cell-based; conditions: Homo sapiens;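 also: growth inhibition of TCC-SUP cells, read out with a cell viability assay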
Description: SANGER: Inhibition of human TCCSUP cell growth in a cell viability assay.

`NC1(c2ccc(-c3nc4ccn5c(=O)[nH]nc5c4cc3-c3ccccc3)cc2)CCC1` [MK-2206] and `O=C1NC(=O)c2c1c(-c1ccccc1Cl)cc1[nH]c3ccc(O)cc3c21` cannot be ordered by IC50: greater than 4000 nM for the first, greater than 2000 nM for the second.

test system: AU565; assay: cells; format: functional, cell-based; conditions: Homo sapiens;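 also: cell viability assay measuring growth inhibition of human AU565 cells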
Description: SANGER: Inhibition of human AU565 cell growth in a cell viability assay.

`NC1(c2ccc(-c3nc4ccn5c(=O)[nH]nc5c4cc3-c3ccccc3)cc2)CCC1` [MK-2206] and `O=C1NC(=O)c2c1c(-c1ccccc1Cl)cc1[nH]c3ccc(O)cc3c21` cannot be ordered by IC50: greater than 4000 nM for the first, greater than 2000 nM for the second.

test system: BEN; assay: cells; format: functional, cell-based; conditions: Homo sapiens;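 also: growth inhibition of the BEN cell line, read out with a cell viability assay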
Description: SANGER: Inhibition of human BEN cell growth in a cell viability assay.

`NC1(c2ccc(-c3nc4ccn5c(=O)[nH]nc5c4cc3-c3ccccc3)cc2)CCC1` [MK-2206] and `O=C1NC(=O)c2c1c(-c1ccccc1Cl)cc1[nH]c3ccc(O)cc3c21` cannot be ordered by IC50: greater than 4000 nM for the first, greater than 2000 nM for the second.

test system: BFTC-905; assay: cells; format: functional, cell-based; conditions: Homo sapiens
Description: SANGER: Inhibition of human BFTC-905 cell growth in a cell viability assay.

First: NC1(c2ccc(-c3nc4ccn5c(=O)[nH]nc5c4cc3-c3ccccc3)cc2)CCC1 [MK-2206]
Second: O=C1NC(=O)c2c1c(-c1ccccc1Cl)cc1[nH]c3ccc(O)cc3c21
The IC50 of the first is higher: greater than 4000 nM for the first, 1620 nM for the second. The second is the more potent here.

test system: TGBC11TKB; assay: cells; format: functional, cell-based; conditions: Homo sapiens;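 also: growth inhibition of human TGBC11TKB cells, measured by a cell viability assay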
Description: SANGER: Inhibition of human TGBC11TKB cell growth in a cell viability assay.

`NC1(c2ccc(-c3nc4ccn5c(=O)[nH]nc5c4cc3-c3ccccc3)cc2)CCC1` [MK-2206] and `O=C1NC(=O)c2c1c(-c1ccccc1Cl)cc1[nH]c3ccc(O)cc3c21` cannot be ordered by IC50: greater than 4000 nM for the first, greater than 2000 nM for the second.

test system: UACC-893; assay: cells; format: functional, cell-based; conditions: Homo sapiens
Description: SANGER: Inhibition of human UACC-893 cell growth in a cell viability assay.

Molecule `O=C1NC(=O)c2c1c(-c1ccccc1Cl)cc1[nH]c3ccc(O)cc3c21` has an IC50 greater than 2000 nM.

test system: CFPAC-1; assay: cells; format: functional, cell-based; conditions: Homo sapiens;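 also: cell viability readout used to gauge suppression of CFPAC-1 cell proliferation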
Description: SANGER: Inhibition of human CFPAC-1 cell growth in a cell viability assay.

`NC1(c2ccc(-c3nc4ccn5c(=O)[nH]nc5c4cc3-c3ccccc3)cc2)CCC1` [MK-2206] and `O=C1NC(=O)c2c1c(-c1ccccc1Cl)cc1[nH]c3ccc(O)cc3c21` cannot be ordered by IC50: greater than 4000 nM for the first, greater than 2000 nM for the second.

test system: CHP-212; assay: cells; format: functional, cell-based; conditions: Homo sapiens
Description: SANGER: Inhibition of human CHP-212 cell growth in a cell viability assay.

First: NC1(c2ccc(-c3nc4ccn5c(=O)[nH]nc5c4cc3-c3ccccc3)cc2)CCC1 [MK-2206]
Second: O=C1NC(=O)c2c1c(-c1ccccc1Cl)cc1[nH]c3ccc(O)cc3c21
The IC50 of the first is higher: greater than 4000 nM for the first, 619 nM for the second.
